Laboratory results published in patent US6337417B1, “N-phenyltetrahydrophthalamic acid derivatives, methods of producing same, and herbicides containing same as effective components” (Central Glass Co., Ltd., priority 1994, dated 2002).

How the values were obtained:
Assay type in all cases: in vivo
Set-up in all cases: key: 5: completely killed; 4: seriously injured; 3: considerably injured; 2: somewhat injured; 1: slightly injured; 0: not injured (normally grown)
[1] = system: cockspur (Panicum crus-galli); assay: Experiment 5 foliage treatment: cockspur; settings: foliage spray of wettable powder suspension, evaluated 4 weeks after treatment
Description: (§1) Upon seedling stage (two- or three-leaved stage) of rice, cockspur (Panicum crus-galli), garden radish, aobiyu (slender amaranth, Amaranthus viridis) and mehishiba (henry crabgrass, Digitaria cliaris) which were grown on a cultivated soil put in pots of 1/15500 ares, a selected compound obtained in a manner analogous to Example 11, in suspended wettable powder, was sprayed to each plant. After that, the pots were kept in a glass chamber to allow each plant to grow, and after the lapse of 4 weeks from the treatment with the selected compounds the herbicidal effects were evaluated. The evaluation of the herbicidal effects was similarly conducted as that of Experiment 1.

[2] = system: paddy rice; assay: Experiment 4 flooded soil treatment: injury to paddy rice; settings: 4 weeks after treatment
Description: (§2) Paddy soil (clay loam) was put into a pot so as to have a surface area of 1/15500 ares. Uniformly mixed seeds of several kinds of weeds, viz., nobie (barnyardgrass, Echinochloa spp.), broad-leaved weeds, hotarui (bulrush, Scirpus juncoides) and tamagayatsuri (small-flowered umbrellaplant, Cyperus difformis), were sown in the surface layer of the soil in each pot, and then paddy rice seedlings at the two- or three-leaved stage were transplanted into each pot to a depth of 2 cm, and water was fed into each pot so as to provide a 3 cm deep water layer on the soil surface. After 3 days, in other words at the initial stage of germination of nobie (barnyardgrass, Echinochloa spp.), a predetermined amount of a selected compound obtained in a manner analogous to Example 11 in the form of diluted aqueous solution was dropped into the water layer in each pot. After that, the pots were kept in a glass chamber to allow the paddy rice and the weeds to grow, and after the lapse of 4 weeks from the treatment with the selected compounds, the herbicidal effects and the degree of injury to the paddy rice were evaluated. The evaluation of the herbicidal effects was similarly conducted as to that of Experiment 1.

[3] = system: tamagayatsuri (small-flowered umbrellaplant, Cyperus difformis); assay: Experiment 4 flooded soil treatment: tamagayatsuri; settings: 4 weeks after treatment
Description: as §2

[4] = system: nobie (barnyardgrass, Echinochloa spp.); assay: Experiment 4 flooded soil treatment: nobie; settings: 4 weeks after treatment
Description: as §2

[5] = system: broad-leaved weeds; assay: Experiment 4 flooded soil treatment: broad-leaved weeds; settings: 4 weeks after treatment
Description: as §2

[6] = system: hotarui (bulrush, Scirpus juncoides); assay: Experiment 4 flooded soil treatment: hotarui; settings: 4 weeks after treatment
Description: as §2

[7] = system: mehishiba (henry crabgrass, Digitaria cliaris); assay: Experiment 5 foliage treatment: mehishiba; settings: foliage spray of wettable powder suspension, evaluated 4 weeks after treatment
Description: as §1

[8] = system: garden radish; assay: Experiment 5 foliage treatment: garden radish; settings: foliage spray of wettable powder suspension, evaluated 4 weeks after treatment
Description: as §1

[9] = system: aobiyu (slender amaranth, Amaranthus viridis); assay: Experiment 5 foliage treatment: aobiyu; settings: foliage spray of wettable powder suspension, evaluated 4 weeks after treatment
Description: as §1

[10] = system: rice; assay: Experiment 5 foliage treatment: rice; settings: foliage spray of wettable powder suspension, evaluated 4 weeks after treatment
Description: as §1

| SMILES | Herbicidal Effect cockspur ([1]; 40 g/10a) | Herbicidal Effect cockspur ([1]; 80 g/10a) | Injury of Paddy ([2]; 3.13 g/10a) | Injury of Paddy ([2]; 6.25 g/10a) | Herbicidal Effect tamagayatsuri ([3]; 3.13 g/10a) | Herbicidal Effect tamagayatsuri ([3]; 6.25 g/10a) | Herbicidal Effect nobie ([4]; 3.13 g/10a) | Herbicidal Effect nobie ([4]; 6.25 g/10a) | Herbicidal Effect broad-leaved weed ([5]; 3.13 g/10a) | Herbicidal Effect broad-leaved weed ([5]; 6.25 g/10a) | Herbicidal Effect hotarui ([6]; 3.13 g/10a) | Herbicidal Effect hotarui ([6]; 6.25 g/10a) | Herbicidal Effect mehishiba ([7]; 40 g/10a) | Herbicidal Effect mehishiba ([7]; 80 g/10a) | Herbicidal Effect garden radish ([8]; 40 g/10a) | Herbicidal Effect garden radish ([8]; 80 g/10a) | Herbicidal Effect aobiyu ([9]; 40 g/10a) | Herbicidal Effect aobiyu ([9]; 80 g/10a) | Herbicidal Effect rice ([10]; 40 g/10a) | Herbicidal Effect rice ([10]; 80 g/10a) |
| --- | --- | --- | --- | --- | --- | --- | --- | --- | --- | --- | --- | --- | --- | --- | --- | --- | --- | --- | --- | --- |
| COCCOC(=O)C1=C(C(=O)N(C(=O)c2cccnc2)c2cc(C(=O)OC)c(Cl)cc2F)CCCC1 [compound 65] | 1 | 1 | 0 | 0 | 4 | 4 | 5 | 5 | 5 | 5 | 4 | 4 | 1 | 1 | 5 | 5 | 5 | 5 | 1 | 1 |
| CCCCOC(=O)c1cc(N(C(=O)C2=C(C(=O)OC)CCCC2)C(=O)c2cccnc2)c(F)cc1Cl [compound 66] | 1 | 1 | 0 | 0 | 4 | 4 | 5 | 5 | 5 | 5 | 4 | 4 | 1 | 2 | 4.5 | 5 | 5 | 5 | 1 | 1 |
| C#CC(C)Oc1cc(N(C(=O)C2=C(C(=O)OC(C)C)CCCC2)C(=O)c2ccc(Cl)nc2)c(F)cc1Cl (stereo not drawn) [compound 68] | 1 | 1 | 0 | 0.5 | 5 | 5 | 5 | 5 | 5 | 5 | 4 | 4.5 | 1 | 1 | 5 | 5 | 5 | 5 | 1 | 1 |
| C#CC(C)Oc1cc(N(C(=O)C2=C(C(=O)OCCOC)CCCC2)C(=O)c2ccc(Cl)nc2)c(F)cc1Cl (stereo not drawn) [compound 69] | 1 | 1 | 0.5 | 0.5 | 5 | 5 | 5 | 5 | 5 | 5 | 4 | 4.5 | 2 | 2 | 4.5 | 5 | 5 | 5 | 1 | 1 |
| C#CC(C)Oc1cc(N(C(=O)C2=C(C(=O)OC)CCCC2)C(=O)c2cccnc2)c(Cl)cc1Cl (stereo not drawn) [compound 70] | 1 | 1 | 0 | 0 | 5 | 5 | 5 | 5 | 5 | 5 | 4 | 4 | 2 | 2 | 4 | 5 | 5 | 5 | 1 | 1 |
| C#CC(C)Oc1cc(N(C(=O)C2=C(C(=O)OCCOC)CCCC2)C(=O)c2cccnc2)c(Cl)cc1Cl (stereo not drawn) [compound 71] | 1 | 1 | 0 | 0 | 5 | 5 | 5 | 5 | 5 | 5 | 4 | 4 | 2 | 2 | 4 | 5 | 5 | 5 | 1 | 1 |
